Measured values published in article PMC11249239 (PLOS ONE, 2024).
Several values for one entry are separate records, joined by “and”; a condition that tells them apart may be missing. Equal entries are not always repeated.

Assays:
[1] = test system: triple negative breast cancer cells; test: Cell growth inhibition, triple negative breast cancer cells stated together; type: cell-based; details: range over triple negative breast cancer cells; read-out: effective growth inhibition concentrations (EC50)
Source text: Prism-GraphPad software was used to analyze data.

MCF7 (ER+) cells = test: Cell growth inhibition (CCK8 cytotoxicity assay), MCF7; type: cell-based; details: Homo sapiens, 48 h treatment, read-out: Average EC50 ± SD, cell growth inhibition
[2] = Plasma pharmacokinetics after intravenous administration; type: in vivo, Sprague-Dawley rats; details: 20 mg/kg IV
Source text: A commercial vendor (Medicilon, Inc.) performed the pharmacokinetic studies. Male Sprague-Dawley Rats (n = 8) were received from Sino-British SIPPR/BK Lab Animal Ltd., Shanghai, and 6 animals were placed on study. All studies were approved by the Institutional Animal Care and Use Committee (Protocol #: 19098–17002) of Medicilon Preclinical Research-Shanghai LLC, Pudong Shanghai 201200, P.R. China. The animals were allowed to acclimatize for at least 5 d before beginning the study. The procedure was performed under general anesthesia with 3–5% isoflurane for blood collections via jugular vein. All efforts were made to minimizing suffering and least stressful. The compound was dissolved in 5% DMSO + 40% PEG400 + 55% PBS to yield a final concentration of 2 mg/ml. The tolerated dose (20 mg/Kg) was administered via intravenous (IV) in rats. After IV administration, blood samples were collected via jugular vein at various time points (0, 1, 2, 4, 6, and 8 h) under general anesthesia with 3–5% isoflurane. Samples were then placed into tubes containing K2EDTA and centrifuged at 8,000 rpm for 6 min to obtain plasma. The resulting plasma were analyzed by LCMS. Following completion of the study, all surviving animals were euthanized with CO2, followed by cervical dislocation. Pharmacokinetic analysis was determined using a non-compartmental module of WinNonlin Professional 5.2. The maximum measured plasma concentrations (Cmax) and the time of Cmax (tmax) were derived directly from the data. The area under the curve (AUC) was calculated using the log-linear trapezoidal method rule up to the last data point and was extrapolated to infinity with the following formula: Clast/β, where Clast is the last measured concentration time point. The elimination half-life was calculated with the equation t1/2 = 0.693/β, where β is the terminal rate constant. The clearance (Cl = dose/AUC) rate was also evaluated.

HDAC1 = molecular target: T1, HDAC1 (Homo sapiens, UniProt Q13547); test: In vitro HDAC isoform inhibition, purified recombinant HDAC1; type: biochemical; details: purified recombinant protein; ± margin of error of 95% confidence interval; read-out: IC50 HDAC inhibition activity in vitro, HDAC 1
T1 construct: purchased PBS Bioscience [sic] (San Diego, CA); host or cells: Sf9 insect cells / baculovirus
T1 sequence (Q13547 whole entry, canonical isoform): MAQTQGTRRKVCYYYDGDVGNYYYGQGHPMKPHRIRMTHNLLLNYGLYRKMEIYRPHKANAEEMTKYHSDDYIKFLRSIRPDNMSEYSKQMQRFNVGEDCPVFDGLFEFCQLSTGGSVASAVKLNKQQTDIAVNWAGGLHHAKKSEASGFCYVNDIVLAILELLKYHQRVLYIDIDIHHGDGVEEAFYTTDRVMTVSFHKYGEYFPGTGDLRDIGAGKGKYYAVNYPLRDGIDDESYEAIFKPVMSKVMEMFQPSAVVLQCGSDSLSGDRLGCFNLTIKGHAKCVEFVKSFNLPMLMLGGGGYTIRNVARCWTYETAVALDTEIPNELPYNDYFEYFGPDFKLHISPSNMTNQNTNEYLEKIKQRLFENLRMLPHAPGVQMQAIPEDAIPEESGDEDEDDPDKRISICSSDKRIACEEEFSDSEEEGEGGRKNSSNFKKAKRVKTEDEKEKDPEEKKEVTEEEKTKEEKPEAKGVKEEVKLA
Source text: (§1) In vitro HDAC enzyme inhibition assays utilized HeLa cell extract for pan-HDACs with the substrate Fluor-Lys following the manufacturer’s protocol (BIOMOL/ENZO, Plymouth Meeting, PA). For isoform assays, purified HDAC1, HDAC3, and HDAC6 recombinant proteins produced by expressing epitope-tagged full-length proteins in the sf9 baculovirus expression vector system were purchased from PBS Bioscience (San Diego, CA). […] The reaction commenced with the addition of HDAC substrate at room temperature and proceeded for 30 minutes. Termination of the reaction was achieved by adding 50 μL of Fluor de Lys (TM) Assay Developer. The fluorophore was excited at 360 nm and emitted light at 460 nm. Relative fluorescence was measured using a FlexStation II plate reader (Molecular Devices, Sunnyvale, CA).

phosphorylated p53 = test: Western blot, phosphorylated p53; type: cell-based; details: 1 μM
Source text: (§2) Following treatment of cells with SP-1-303 over a time course, total or nuclear proteins were extracted and analyzed on 4–20% trisglycine gradient sodium dodecyl sulfate polyacrylamide gel electrophoresis (SDS-PAGE). Subsequently, membranes were probed with antibodies targeting specific proteins in accordance with the manufacturers’ protocols, including ATM (ab78), p-BRCA1 (ab90528), BRCA1 (ab191042), p-p53/S15 (ab1431), acetylated H3K9 (ab12179) from Abcam, as well as p-ATM (# 5883) and p53 (#9282) from Cell Signaling, α-tubulin (T6793) and β-actin (A3854) from Sigma-Aldrich, ER-α (cat# MA1-80216, Invitrogen) and HDAC2 (BML-SA402. Enzo). Protein images were captured using ECL Prime Western Blotting Detection Reagents (Cat#. RPN2232, Amersham) and the Amersham Imager 600. For immunofluorescent analysis, formalin fixed cells were permeabilized with 0.1% Triton X-100 in TBS for 10 minutes at room temperature, followed by blocking with 1% Blocker BSA for 15 minutes at room temperature. Cells were then probed with a phospho-ATM monoclonal antibody (MA5-15185) and DyLight 488 goat anti-mouse IgG secondary antibody at room temperature. Actin was stained with DyLight 554 phalloidin, while nuclei were stained with 4’,6-diamidino-2-phenylindole dye (DAPI). Images were captured using a Nikon Epi Fluorescent microscopy.

HDAC4 = HDAC4 (Homo sapiens, UniProt P56524); test: HDAC4 activity inhibition (data not shown); type: biochemical; details: read-out: IC50 class IIa HDAC4 inhibition
Sequence of HDAC4 (P56524 whole entry, species assumed): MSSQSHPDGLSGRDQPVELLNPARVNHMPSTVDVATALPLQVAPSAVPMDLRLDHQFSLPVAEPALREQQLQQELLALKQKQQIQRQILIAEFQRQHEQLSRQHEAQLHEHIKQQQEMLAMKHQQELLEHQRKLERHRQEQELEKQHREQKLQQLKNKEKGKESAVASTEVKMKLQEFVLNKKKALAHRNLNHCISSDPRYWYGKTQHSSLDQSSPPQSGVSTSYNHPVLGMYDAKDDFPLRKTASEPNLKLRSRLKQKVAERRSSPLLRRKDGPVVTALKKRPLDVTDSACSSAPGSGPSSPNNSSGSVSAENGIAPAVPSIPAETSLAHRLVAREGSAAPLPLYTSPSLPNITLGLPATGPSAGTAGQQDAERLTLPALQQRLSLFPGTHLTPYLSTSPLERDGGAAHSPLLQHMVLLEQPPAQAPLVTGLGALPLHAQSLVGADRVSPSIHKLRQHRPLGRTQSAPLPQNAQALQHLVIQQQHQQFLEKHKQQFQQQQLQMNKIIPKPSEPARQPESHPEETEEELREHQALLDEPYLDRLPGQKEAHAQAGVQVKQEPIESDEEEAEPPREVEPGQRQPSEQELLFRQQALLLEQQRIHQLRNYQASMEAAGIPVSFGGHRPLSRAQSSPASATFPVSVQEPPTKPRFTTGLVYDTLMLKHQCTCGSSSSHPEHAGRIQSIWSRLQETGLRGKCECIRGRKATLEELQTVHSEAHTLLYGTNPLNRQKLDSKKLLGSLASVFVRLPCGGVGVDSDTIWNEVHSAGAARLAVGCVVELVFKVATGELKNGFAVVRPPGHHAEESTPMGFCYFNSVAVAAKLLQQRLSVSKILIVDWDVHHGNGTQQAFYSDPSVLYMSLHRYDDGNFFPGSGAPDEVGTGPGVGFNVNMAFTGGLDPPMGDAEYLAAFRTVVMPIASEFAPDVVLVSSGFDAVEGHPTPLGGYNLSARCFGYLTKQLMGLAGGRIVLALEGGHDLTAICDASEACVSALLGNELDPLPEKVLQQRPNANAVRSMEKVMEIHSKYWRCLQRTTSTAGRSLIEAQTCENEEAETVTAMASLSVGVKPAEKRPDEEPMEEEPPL

MCF7 cells = test: Cell cycle analysis by flow cytometry (FACS); type: cell-based
Protocol: Cells were treated with SP-1-303 for 24, 48, and 72 hours. DMSO and ionizing radiation (IR) were used on controls. The cell cycle distributions were analyzed by flow cytometry. The cells were harvested at the indicated times, washed twice with cold phosphate-buffered saline (PBS), and fixed with citrate/DMSO buffer for overnight. The cells were resuspended in PBS containing 40 μg/ml of DNase-free RNase A and 50 μg/ml of propidium iodide, and the cell cycle distributions were measured in a fluorescence-activated cell sorter (FACSort) from Becton Dickinson. DNA content was quantified using ModFit LT 3.0 software (Verity Software House, Inc).

[3] = test system: acetylated histone 3 lysine 9 (H3K9ac); test: Western blot, acetylation of histone H3 lysine 9; type: cell-based; details: MCF7 and MDA-MB-231; 1 μM; within 0.5 h
Source text: as §2

[4] = test system: pan-HDACs (HeLa cell extract); test: In vitro HDAC enzyme inhibition, HeLa cell nuclear extract (Fluor de Lys); type: biochemical; details: ± margin of error of 95% confidence interval
Source text: as §1

Cc1[nH]c2ccccc2c1C1=C(c2c(C)[nH]c3ccccc23)C(=O)N(CCCCCCC(=O)NO)C1=O [SP-1-303]
EC50 [1]: 1.2 to 2.5 µM
EC50 (MCF7 (ER+) cells): 0.34 ± 0.122 µM
Tmax ([2]; male, Sprague-Dawley, plasma, rat, mean value, read-out: tmax, time to reach maximum plasma concentration): 4.98 min
half-life ([2]; male, Sprague-Dawley, plasma, rat, read-out: t1/2, elimination half-life (converted)): 75.6 min
compound remaining in plasma at 4 h ([2]; rat plasma, 4 h): 1%
AUC, area under the curve ([2]; rat): 5227.55 ng/ml x h
IC50 (HDAC1): 0.012 ± 0.001 µM
phosphorylated p53 (phosphorylated p53; MCF7, within 1h to 2h): induction
phosphorylated p53 (phosphorylated p53; MDA-MB-231): no phosphorylated p53
IC50 (HDAC4): > 20 µM
% Cells in G1 (MCF7 cells; 24 HR): 89.44%
% Cells in G2/M (MCF7 cells; 24 HR): 6.19%
% Cells in S (MCF7 cells; 24 HR): 4.37%
% Cells in G2/M (MCF7 cells; 24 HR + IR): 5.12%
% Cells in S (MCF7 cells; 24 HR + IR): 3.91%
% Cells in G1 (MCF7 cells; 24 HR + IR (combination with radiation)): 91% and 90.97%
% Cells in G1 (MCF7 cells; 48 HR): 71.02%
% Cells in G2/M (MCF7 cells; 48 HR): 6.75%
% Cells in S (MCF7 cells; 48 HR): 22.24%
% Cells in G1 (MCF7 cells; 72 HR): 81.35%
% Cells in G2/M (MCF7 cells; 72 HR): 6.21%
% Cells in S (MCF7 cells; 72 HR): 12.45%
acetylation of histone H3 lysine 9 (H3K9) [3]: significantly enhanced
IC50 [4]: 0.12 ± 0.058 µM
